Laboratory results: patent US12528819B2 (priority 2016, dated 2026)

Biological target: T1, α5β2γ2 subtype GABAAR (Homo sapiens, UniProt P18507+P31644)
T1 construct: expressed in transfected cells
T1 sequence (P31644 32-462): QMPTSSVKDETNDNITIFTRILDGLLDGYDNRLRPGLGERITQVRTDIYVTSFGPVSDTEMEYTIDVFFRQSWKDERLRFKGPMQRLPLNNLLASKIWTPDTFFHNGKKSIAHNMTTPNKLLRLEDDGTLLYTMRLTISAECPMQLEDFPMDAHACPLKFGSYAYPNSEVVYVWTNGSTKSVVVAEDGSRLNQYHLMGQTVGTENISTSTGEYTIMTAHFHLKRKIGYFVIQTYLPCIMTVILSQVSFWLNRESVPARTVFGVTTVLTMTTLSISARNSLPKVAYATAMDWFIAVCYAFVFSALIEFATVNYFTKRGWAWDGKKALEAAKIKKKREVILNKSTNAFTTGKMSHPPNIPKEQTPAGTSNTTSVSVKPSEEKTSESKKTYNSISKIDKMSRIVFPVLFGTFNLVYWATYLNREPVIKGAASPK
T1 sequence (P47870 25-512 partner limits assumed): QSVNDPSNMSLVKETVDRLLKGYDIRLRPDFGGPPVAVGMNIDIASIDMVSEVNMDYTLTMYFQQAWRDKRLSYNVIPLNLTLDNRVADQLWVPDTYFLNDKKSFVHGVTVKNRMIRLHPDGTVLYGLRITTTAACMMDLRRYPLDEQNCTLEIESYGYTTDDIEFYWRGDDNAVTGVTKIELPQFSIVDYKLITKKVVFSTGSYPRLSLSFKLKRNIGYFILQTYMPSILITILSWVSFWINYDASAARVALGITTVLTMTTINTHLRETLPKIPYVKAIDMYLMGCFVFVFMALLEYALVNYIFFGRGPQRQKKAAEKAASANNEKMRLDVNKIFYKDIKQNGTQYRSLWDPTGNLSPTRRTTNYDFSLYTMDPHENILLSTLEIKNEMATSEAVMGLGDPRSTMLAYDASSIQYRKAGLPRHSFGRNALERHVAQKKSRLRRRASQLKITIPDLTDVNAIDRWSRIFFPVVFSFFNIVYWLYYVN
T1 sequence (P18507 40-467 limits assumed): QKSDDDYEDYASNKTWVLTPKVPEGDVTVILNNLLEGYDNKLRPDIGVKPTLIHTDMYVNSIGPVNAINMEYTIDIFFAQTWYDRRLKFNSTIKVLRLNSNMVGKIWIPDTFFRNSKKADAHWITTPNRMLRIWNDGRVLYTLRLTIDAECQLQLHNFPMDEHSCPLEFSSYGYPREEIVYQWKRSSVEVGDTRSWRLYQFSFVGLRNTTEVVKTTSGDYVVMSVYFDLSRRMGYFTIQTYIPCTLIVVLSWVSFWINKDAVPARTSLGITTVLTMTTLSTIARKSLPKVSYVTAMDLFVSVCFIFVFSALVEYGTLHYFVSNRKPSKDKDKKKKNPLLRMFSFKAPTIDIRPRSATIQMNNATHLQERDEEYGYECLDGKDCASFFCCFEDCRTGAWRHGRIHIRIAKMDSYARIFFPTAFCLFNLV
Experiment: Positive allosteric modulator activity: potentiation of EC20 GABA current in oocytes
Assay type: cell-based
Settings: read-out: GABA α5 Functional Data (potentiation), @ 100 nM, reported as ranges
Experimental: (B) Positive Allosteric Modulator Activity of Test Compounds on α5β2γ2 Subtype GABAAR
On day 1, 1 ng/32 nL of GABAA α5β2γ2 cDNA was injected into one oocyte. Test starts on day 2. The cDNA injected to the oocytes was a mix of alpha, beta and gamma, their ratio is 1:1:10 (by weight) and the total weight of the mixed 3 subunits to be injected in one oocyte was 1 ng in 32 nl volume. The injected oocytes can also be tested on day 3. In such case, the cDNA amount injected to the oocytes should be reduced by 20%.
Compounds of the present invention were tested using the following procedures.
• 1). 8 oocytes were placed in 8 chambers of OpusXpress and superfused with Modified Barth's Saline (MBS) at 3 mL/min. Glass electrodes back-filled with 3M KCl (0.5-3 megaohms) were used.
Control test (Diazepam or methyl 3,5-diphenylpyridazine-4-carboxylate) • 1). New oocytes was used to run new test. • 2). […] Oocytes were washed with MBS for 5-10 min. • 4). […] Itest was divided by IGABA to obtain potentiation (%). Test Compounds at Multiple Doses • 1). Repeat the above steps 1), 2) and 3) in the control test. • 2). […] Divide Itest by IGABA to obtain potentiation (%). • 3). Discard all tested oocytes, new oocytes were used and the above steps 1) and 2) were repeated to test second concentration of the same compound. Each oocyte was used for only one concentration test for a single test compound. The steps were repeated for other test compounds.

Structure (SMILES) | activation at 0.1 µM
COCc1nnc2n1Cc1c(-c3nc(-c4ccc(F)cc4)co3)ncn1-c1ccc(Cl)cc1-2 [Compound 324] | 20 to 50%
CCOCc1nnc2n1Cc1c(C3=N[C@@H](c4ccc(F)cc4)CO3)ncn1-c1ccc(Cl)cc1-2 [Compound 325] | 20 to 50%
CC(C)OCc1nnc2n1Cc1c(C3=N[C@@H](c4ccc(F)cc4)CO3)ncn1-c1ccc(Cl)cc1-2 [Compound 326] | 20 to 50%
C#Cc1ncn2c1Cn1c(COC)nnc1-c1cc(OC)ccc1-2 [Compound 328, 5-ethynyl-15-methoxy-9-(methoxymethyl)-2,4,8,10,11-pentaazatetracyclo[11.4.0.0^2,^60.0^8,^12]heptadeca-1(17),3,5,9,11,13,15-heptaene] | 5 to 20%
COCc1nnc2n1Cc1c(C3=N[C@@H](c4ccccc4C)CO3)ncn1-c1ccc(Cl)cc1-2 [Compound 330] | 20 to 50%
COCc1nnc2n1Cc1c(C3=N[C@@H](c4ccccc4OC)CO3)ncn1-c1ccc(Cl)cc1-2 [Compound 331] | 5 to 20%
COCc1nnc2n1Cc1c(C3=N[C@@H](c4ccc(OC)cc4)CO3)ncn1-c1ccc(Cl)cc1-2 [Compound 332] | 5 to 20%
COCc1nnc2n1Cc1c(C3=N[C@@H](c4cccc(OC)c4)CO3)ncn1-c1ccc(Cl)cc1-2 [Compound 333] | 5 to 20%
COCc1nnc2n1Cc1c(C3=N[C@@H](c4ccc(Cl)cc4)CO3)ncn1-c1ccc(Cl)cc1-2 [Compound 334] | 20 to 50%
COCc1nnc2n1Cc1c(C3=N[C@@H](c4cc(F)ccc4F)CO3)ncn1-c1ccc(Cl)cc1-2 [Compound 335] | 5 to 20%
COCc1nnc2n1Cc1c(C3=N[C@@H](c4ccc(C(F)(F)F)cc4)CO3)ncn1-c1ccc(Cl)cc1-2 [Compound 337] | 20 to 50%
CC#Cc1ncn2c1Cn1c(COC)nnc1-c1cc(Cl)ccc1-2 [Compound 339] | 20 to 50%
COCc1nnc2n1Cc1c(C3=N[C@H](c4ccccc4)CO3)ncn1-c1ccc(OC)cc1-2 [Compound 340] | 20 to 50%
CCOCc1nnc2n1Cc1c(-c3ncco3)ncn1-c1ccc(Cl)cc1-2 [Compound 341] | 5 to 20%
COCc1nnc2n1Cc1c(C3=N[C@@H](c4ccccc4)CO3)ncn1-c1ccc(OC)cc1-2 [Compound 343] | 20 to 50%
CCC#Cc1ncn2c1Cn1c(COC)nnc1-c1cc(Cl)ccc1-2 [Compound 345] | 20 to 50%
COCc1nnc2n1Cc1c(C#CCc3ccccc3)ncn1-c1ccc(Cl)cc1-2 [Compound 346] | 20 to 50%
Clc1ccc2c(c1)-c1nnc(COc3ccccc3)n1Cc1c(-c3ncco3)ncn1-2 [Compound 349] | 5 to 20%
Clc1ccc2c(c1)-c1nnc(COCc3ccccc3)n1Cc1c(-c3ncco3)ncn1-2 [Compound 350] | > 50%
C#Cc1ncn2c1Cn1c(COCc3ccccc3)nnc1-c1cc(Cl)ccc1-2 [Compound 351] | 20 to 50%
C#Cc1ncn2c1Cn1c(COc3ccccc3F)nnc1-c1cc(Cl)ccc1-2 [Compound 353, 15-chloro-5-ethynyl-9-(2-fluorophenoxymethyl)-2,4,8,10,11-pentaazatetracyclo[11.4.0.0^2,^60.0^8,^12]heptadeca-1(17),3,5,9,11,13,15-heptaene] | > 50%
CC#Cc1ncn2c1Cn1c(COc3ccccc3F)nnc1-c1cc(Cl)ccc1-2 [Compound 354] | 20 to 50%
Fc1ccccc1OCc1nnc2n1Cc1c(-c3ncco3)ncn1-c1ccc(Cl)cc1-2 [Compound 355] | 20 to 50%
C#Cc1ncn2c1Cc1cnnn1-c1cc(Cl)ccc1-2 [Compound 356] | > 50%
Clc1ccc2c(c1)-n1nncc1Cc1c(C3=N[C@@H](c4ccccc4)CO3)ncn1-2 [Compound 357] | 20 to 50%
Clc1ccc2c(c1)-n1nncc1Cc1c(C3=N[C@H](c4ccccc4)CO3)ncn1-2 [Compound 358] | 20 to 50%
Fc1ccc([C@H]2COC(c3ncn4c3Cc3cnnn3-c3cc(Cl)ccc3-4)=N2)cc1 [Compound 359] | 5 to 20%
